Assay results as given in patent publication US20110319398A1 (priority 2010, published 2011).

Key:
[1] = system: YopE leaked into culture supernatants; assay type: cell-based, Y. pseudotuberculosis; conditions: 60 μM compound, HEp-2 cells infected with WT Yptb, compared to DMSO
[2] = system: ExoS translocation from P. aeruginosa Pa388 into HEp-2 cells; assay type: cell-based
Yptb WT IP2666 = assay type: cell-based, Y. pseudotuberculosis; conditions: 60 μM compound, 26 C, 7 hrs
[3] = system: YopE translocation into the cytosol of HEp-2 cells; assay type: cell-based, Y. pseudotuberculosis; conditions: 60 μM compound, compared to DMSO control
[4] = system: YopE translocation into HEp-2 cells; assay type: cell-based, Y. pseudotuberculosis; conditions: 60 μM compound; HEp-2 cells infected with Yptb, 45 minutes
[5] = system: YscF polymer (TTSS needle); design: species or system Y. pseudotuberculosis; conditions: 60 μM compound, 1 mM BS3, Western blot with α-YscF
HEp-2 cells = assay: LDH release assay; assay type: cell-based; conditions: 60 μM compound, absence of Yptb
Protocol: Compounds were resuspended in RPMI supplemented with 5% FBS to a final concentration of 60 μM. Media was replaced with a volume of 100 μL and cells were incubated at 37 C and 5% CO2. A 50 μL sample was taken from the wells at 2 hrs and 24 hrs for quantification of LDH. LDH in supernatants was quantified using the Promega Cytotox 96 Non-Radioactive Cytotoxicity Assay Kit. Control samples for lysis in the absence of compounds were incubated for 45 minutes in Lysis Buffer (supplied in the kit) then collected at the same time points. The OD at 492 nm was measured spectrophotometrically on a SpectraMax 5 plate reader (Molecular Devices, Sunnyvale, Calif.).
The remaining 12 compounds were evaluated for toxicity to either Yptb or HEp-2 cells. […] The 9 non-antibacterial compounds were assessed for their ability to cause damage to epithelial cells by monitoring the release of lactate dehydrogenase (LDH), a cytoplasmic enzyme whose presence in cell supernatants indicates membrane damage. HEp-2 cells were incubated with 60 μM of each compound, in the absence of Yptb. Tissue culture supernatants were collected after 2 or 24 hours and assessed for LDH levels. […] In contrast, C35 had above baseline LDH release levels at 2 hours and this effect was exacerbated at 24 hours (FIG. 3B). […] Because of the high-level of toxicity caused by C35 at both time points, it was excluded from further characterization. In all subsequent experiments with the remaining 8 compounds, HEp-2 cells were exposed to compounds for 2 hours or less.

[6] = system: adherence of Yptb to HEp-2 cells; assay type: cell-based, Y. pseudotuberculosis
[7] = system: YadA-mediated autoagglutination; assay type: cell-based, Y. pseudotuberculosis; conditions: 60 μM C20, 3 hrs at 37 C
[8] = system: Sheep red blood cells infected with Yptb; assay type: cell-based
YscF = assay type: cell-based, Y. pseudotuberculosis; conditions: 60 μM compound, 5 mM CaCl2, 37 C, 1.5 hours
Yop secretion = assay type: cell-based, Y. pseudotuberculosis; conditions: 60 μM compound, secretion media (absence of calcium), 37 C
V. cholerae [9] = conditions: cited from earlier work
V. cholerae [10] = conditions: mouse, in vivo; cited from earlier work

Compound	YopE/Yop leakage into culture supernatants [1]	ExoS-dependent cell rounding [2]	Effect on bacterial growth (OD600) (Yptb WT IP2666)	YscF cross-linking pattern (dimer crosslink) [5]	LDH release at 24 hours (HEp-2 cells)	further results
CCOc1ccc(NC(=O)c2cnccn2)cc1 [Compound C7, N-(4-ethoxyphenyl)pyrazine-2-carboxamide]	significant leakage	little or no effect	no effect on bacterial growth			YopE translocation into HEp-2 cells [3]: did not inhibit translocation of YopE; Inhibition of YopE-mediated cell rounding [4]: cell-rounding defect was weak
O=C1NC2=C(C(=O)c3ccccc32)C(c2ccccc2)S1 (centres unmarked) [Compound C15, 4-phenyl-1,4-dihydroindeno[1,2-d][1,3]thiazine-2,5-dione]	significant leakage	little or no effect	no effect on bacterial growth	weaker dimer crosslink	did not cause further membrane damage	LDH release at 2 hours (HEp-2 cells; 2 hours): elevated LDH release
O=C(c1coc2nc3ccccc3nc12)N1CCN(c2ccccc2)CC1 [Compound C19, furo[3,2-b]quinoxalin-3-yl-(4-phenylpiperazin-1-yl)methanone]	significant leakage	little or no effect	no effect on bacterial growth			
Cc1nn(-c2ccccc2)c(C)c1/N=C/c1c(O)ccc2ccccc12 [Compound C20, 1-[(E)-(3,5-dimethyl-1-phenyl-pyrazol-4-yl)iminomethyl]naphthalen-2-ol]	elevated levels of Yop leakage	reduced cell-rounding	no effect on bacterial growth	weaker dimer crosslink	slightly elevated LDH release	Binding of Invasin-deleted (Δinv) Yptb to HEp-2 cells [6]: did not block the ability of C20 to further inhibit binding; Binding of Yptb to HEp-2 cells, of the levels of the DMSO-treated control ([6]; 60 μM compound, WT Yptb, ELISA): 15-20%; Autoagglutination activity of Yptb [7]: unaffected; Hemolysis (leakage of hemoglobin) of SRBCs infected with Yptb [8]: slightly reduced leakage of hemoglobin
c1ccc2c(-c3csc(-c4ccncc4)n3)c[nH]c2c1 [Compound C24, 4-(1H-indol-3-yl)-2-(4-pyridyl)thiazole]	significant leakage	reduced cell-rounding	no effect on bacterial growth		slightly elevated LDH release	Surface YscF staining (YscF): reduced
Cc1ccc(NC(=O)Nc2cc3c(cc2N2CCCC2)n(C)c(=O)n3C)cc1C [Compound C34, 1-(1,3-dimethyl-2-oxo-6-pyrrolidin-1-yl-benzimidazol-5-yl)-3-(3,4-dimethylphenyl)urea]	elevated levels of Yop leakage	reduced cell-rounding	no effect on bacterial growth	consistently weaker		YopE translocation into HEp-2 cells [3]: did not inhibit translocation of YopE; Inhibition of YopE-mediated cell rounding [4]: potent inhibitor of cell-rounding; Ability to secrete Yops (Yop secretion): secreted less, but detectable levels of Yops
Cc1ccc(C2=N/C(=C/Nc3ccc4c(c3)OCCO4)C(=O)O2)cc1 [Compound C38, (4E)-4-[(2,3-dihydro-1,4-benzodioxin-6-ylamino)methylene]-2-(p-tolyl)oxazol-5-one]	elevated levels of Yop leakage	reduced cell-rounding	no effect on bacterial growth			Surface YscF staining (YscF): reduced
O=C(O)CCCN1C(=O)c2cccc3cccc(c23)C1=O [Virstatin]						Effects on bacterial growth (V. cholerae [9]): without deleterious effects on bacterial growth; Bacterial burden on mice infected with V. cholerae (V. cholerae [10]): reduces the bacterial burden
